Reference: ChEMBL document CHEMBL4265906, “Synthesis and biological evaluation of isoxazolyl-sulfonamides: A non-cytotoxic scaffold active against Trypanosoma cruzi, Leishmania amazonensis and Herpes Simplex Virus” (Bioorg Med Chem Lett, 2018)
Calls of active or inactive are those of the source. No cut-off for these calls is given here.

How the values were obtained:
[1] = system: Trypanosoma cruzi; test: Trypanocidal activity against Trypanosoma cruzi Tulahuen trypomastigotes infected in human THP1 cells assessed as growth inhibition at 50 uM after 48 hrs by chlorophenolred-beta-d-galactopyranoside/Nonidet P-40 reagent-based assay; assay type: functional; details: for inhibition of growth at 50 µM: THP-1, 48 h, read-out: GI
[2] = system: Trypanosoma cruzi; test: Trypanocidal activity against Trypanosoma cruzi Tulahuen trypomastigotes infected in human THP1 cells assessed as growth inhibition after 48 hrs by chlorophenolred-beta-d-galactopyranoside/Nonidet P-40 reagent-based assay; assay type: functional
[3] = system: Leishmania amazonensis; test: Leishmanicidal activity against Leishmania amazonensis MHOM/BR/77/LTB0016 amastigotes infected in human THP1 cells assessed as growth inhibition at 50 uM after 48 hrs by chlorophenolred-beta-d-galactopyranoside/Nonidet P-40 reagent-based assay; assay type: functional; details: for inhibition of growth at 50 µM: MHOM/BR/77/LTB0016, THP-1, 48 h, read-out: GI
[4] = system: Human alphaherpesvirus 1; test: Antiviral activity against […] HSV1 KOS infected in African green monkey Vero cells assessed as inhibition of viral replication at 100 uM after 48 hrs by naphthol blue-black staining-based assay; assay type: functional; details: for inhibition at 100 µM: Human alphaherpesvirus 1, KOS
[5] = system: Human alphaherpesvirus 1; test: Antiviral activity against […] HSV1 KOS infected in African green monkey Vero cells assessed as inhibition of viral replication after 48 hrs by naphthol blue-black staining-based assay; assay type: functional, organism-based
[6] = Cytotoxicity against human A549 cells assessed as reduction in cell viability after 48 hrs by sulforhodamine B assay; assay type: cell-based
[7] = Cytotoxicity against human HCT8 cells assessed as reduction in cell viability after 48 hrs by sulforhodamine B assay; assay type: cell-based; details: HCT-8 cells
[8] = Cytotoxicity against African green monkey Vero cells assessed as reduction in cell viability after 48 hrs by sulforhodamine B assay; assay type: cell-based; details: chlorocebus sabaeus
[9] = Cytotoxicity against human THP1 cells assessed as reduction in cell viability by MTT assay; assay type: cell-based; details: THP-1 cells
[10] = Selectivity index, ratio of CC50 for human THP1 cells to G150 for Trypanosoma cruzi Tulahuen trypomastigotes; assay type: toxicity; details: THP-1 cells, read-out: Selectivity Index
[11] = Selectivity index, ratio of CC50 for African green monkey Vero cells to IC50 for HSV1 KOS; assay type: toxicity; details: read-out: Ratio CC50/IC50
[12] = system: Leishmania amazonensis; test: Leishmanicidal activity against Leishmania amazonensis MHOM/BR/77/LTB0016 amastigotes infected in human THP1 cells assessed as growth inhibition at 2 uM after 48 hrs by chlorophenolred-beta-d-galactopyranoside/Nonidet P-40 reagent-based assay; assay type: functional; details: MHOM/BR/77/LTB0016, THP-1, 48 h, read-out: GI
[13] = system: Trypanosoma cruzi; test: Trypanocidal activity against Trypanosoma cruzi Tulahuen trypomastigotes infected in human THP1 cells at 20 uM after 48 hrs by chlorophenolred-beta-d-galactopyranoside/Nonidet P-40 reagent-based assay; assay type: functional; details: THP-1, 48 h, read-out: GI
[14] = Human alphaherpesvirus 1, KOS, Vero, 48 h, read-out: IC50

Row | SMILES | inhibition of growth at 50 µM [1] | GI50 ([2]; THP-1, 48 h) | inhibition of growth at 50 µM [3] | inhibition at 100 µM [4] | IC50 [5, 14] | inhibition [4] | IC50 ([5]; vero) | also measured
1 | O=S(=O)(NCc1cc(-c2ccccc2)no1)c1ccc(Cl)cc1 | 16.6% | > 50 µM | 17.2% | 17.8% | > 100 µM | – | – | –
2 | COc1ccc(-c2cc(CNS(=O)(=O)c3ccc(F)cc3)on2)cc1OC | 72.8% | 42.4 µM | 6.6% | 22.8% | > 100 µM | – | – | CC50 at 48 h [6]: 327 µM; CC50 at 48 h [7]: 374 µM; CC50 at 48 h [8]: 397 µM; CC50 [9]: 300 µM; selectivity ratio [10]: 7.1
3 | O=[N+]([O-])c1ccc(S(=O)(=O)NCc2cc(-c3ccc4c(c3)OCO4)no2)cc1 | 86.3% | 11.6 µM | 43.4% | 25.3% | > 100 µM | – | – | CC50 at 48 h [6]: 284 µM; CC50 at 48 h [7]: > 500 µM; CC50 at 48 h [8]: 387 µM; CC50 [9]: 339 µM; selectivity ratio [10]: 29.1
4 | Cc1ccc(S(=O)(=O)NCc2cc(-c3ccc([N+](=O)[O-])cc3)no2)cc1 | 9.8% | > 50 µM | 9.3% | – | – | inactive | Not Active | –
5 | COc1ccc(-c2cc(CNS(=O)(=O)c3ccc(C)cc3)on2)cc1 | – | – | 2% | 65% | 95.9 µM | – | – | CC50 at 48 h [6]: > 500 µM; CC50 at 48 h [7]: > 500 µM; CC50 at 48 h [8]: ≥ 331 µM; CC50 [9]: > 500 µM; growth inhibition (GI) [1]: inactive; GI50 [2]: inactive; selectivity ratio [11]: > 3.4
6 | O=[N+]([O-])c1ccc(S(=O)(=O)NCc2cc(-c3ccccc3)no2)cc1 | 34% | > 50 µM | 18.4% | 10.4% | > 100 µM | – | – | –
7 | O=[N+]([O-])c1ccc(-c2cc(CNS(=O)(=O)c3ccc(F)cc3)on2)cc1 | 7.8% | > 50 µM | 15.7% | – | – | inactive | Not Active | –
8 | C[C@@H]1[C@H](O)[C@@H](C)/C=C/C=C/C=C/C=C/C=C/C=C/C=C/[C@H](O[C@@H]2O[C@H](C)[C@@H](O)[C@H](N)[C@@H]2O)C[C@@H]2O[C@](O)(C[C@@H](O)C[C@@H](O)[C@H](O)CC[C@@H](O)C[C@@H](O)CC(=O)O[C@H]1C)C[C@H](O)[C@H]2C(=O)O [AMPHOTERICIN B] | – | – | – | – | – | – | – | inhibition of growth at 2 µM [12]: 92.1%
9 | O=S(=O)(NCc1cc(-c2ccccc2)no1)c1ccc(F)cc1 | – | – | 13.2% | 40.2% | > 100 µM | – | – | growth inhibition (GI) [1]: inactive; GI50 [2]: inactive
10 | COc1ccc(-c2cc(CNS(=O)(=O)c3ccc(C)cc3)on2)cc1OC | 25.6% | > 50 µM | 4.1% | – | – | inactive | Not Active | –
11 | Cc1ccc(S(=O)(=O)NCc2cc(-c3ccccc3)no2)cc1 | 5.8% | > 50 µM | 10.9% | 25.3% | > 100 µM | – | – | –
12 | O=S(=O)(NCc1cc(-c2ccc3c(c2)OCO3)no1)c1ccc(F)cc1 | – | – | 12.8% | 70.1% | 173 µM | – | – | growth inhibition (GI) [1]: inactive; GI50 [2]: inactive; selectivity ratio [11]: > 2.9
13 | Cc1ccc(S(=O)(=O)NCc2cc(-c3ccc4c(c3)OCO4)no2)cc1 | – | – | 11.4% | 19.1% | > 100 µM | – | – | CC50 at 48 h [6]: 358 µM; CC50 at 48 h [7]: 437 µM; CC50 at 48 h [8]: > 500 µM; CC50 [9]: > 500 µM; growth inhibition (GI) [1]: inactive; GI50 [2]: inactive
14 | Nc1nc2c(ncn2COCCO)c(=O)[nH]1 [ACYCLOVIR] | – | – | – | – | 1.29 µM | – | – | selectivity ratio [11]: > 1500
15 | COc1ccc(-c2cc(CNS(=O)(=O)c3ccc([N+](=O)[O-])cc3)on2)cc1OC | 53.9% | > 50 µM | 10.2% | – | – | inactive | Not Active | –
16 | COc1ccc(-c2cc(CNS(=O)(=O)c3ccc(Cl)cc3)on2)cc1 | – | – | 6.4% | 32% | > 100 µM | – | – | growth inhibition (GI) [1]: inactive; GI50 [2]: inactive
17 | O=C(Cn1ccnc1[N+](=O)[O-])NCc1ccccc1 [BENZNIDAZOLE] | – | 10.2 µM | – | – | – | – | – | inhibition of growth at 20 µM [13]: 96.6%; selectivity ratio [10]: > 49.1
18 | COc1ccc(-c2cc(CNS(=O)(=O)c3ccc([N+](=O)[O-])cc3)on2)cc1 | 85.8% | 14.3 µM | 48.7% | 60% | 137 µM | – | – | selectivity ratio [10]: > 34.8; selectivity ratio [11]: > 3.6
19 | O=[N+]([O-])c1ccc(-c2cc(CNS(=O)(=O)c3ccc(Cl)cc3)on2)cc1 | – | – | 2% | – | – | inactive | Not Active | growth inhibition (GI) [1]: inactive; GI50 [2]: inactive
20 | O=[N+]([O-])c1ccc(-c2cc(CNS(=O)(=O)c3ccc([N+](=O)[O-])cc3)on2)cc1 | 76.2% | 38.6 µM | 25.2% | – | – | inactive | Not Active | selectivity ratio [10]: > 12.9
21 | COc1ccc(-c2cc(CNS(=O)(=O)c3ccc(Cl)cc3)on2)cc1OC | 27.4% | > 50 µM | – | 2% | > 100 µM | – | – | growth inhibition (GI) [3]: inactive
22 | O=S(=O)(NCc1cc(-c2ccc3c(c2)OCO3)no1)c1ccc(Cl)cc1 | 14.2% | > 50 µM | 30.7% | – | – | inactive | Not Active | –
23 | COc1ccc(-c2cc(CNS(=O)(=O)c3ccc(F)cc3)on2)cc1 | 44.5% | > 50 µM | 14% | 100% | 87.4 µM | – | – | selectivity ratio [11]: > 5.7
